Data from patent US8507535B2 (Hoffmann-La Roche Inc., priority 2010, dated 2013).

target: human NK3 receptor (Homo sapiens (Human), UniProt P29371); assay: [3H]SR142801 competition binding assay; settings: membranes from HEK293 cells transiently expressing recombinant human NK3 receptor; [3H]SR142801 radioligand; read-out: Ki (uM) hNK3
Experimental: [^3H]SR142801 Competition Binding Assay
hNK3 receptor binding experiment were performed using [^3H]SR142801 (Catalog No. TRK1035, specific activity: 74.0 Ci/mmol, Amersham, GE Healthcare UK limited, Buckinghamshire, UK) and membrane isolated from HEK293 cells transiently expressing recombinant human NK3 receptor. After thawing, the membrane homogenates were centrifuged at 48,000×g for 10 min at 4° C., the pellets were resuspended in the 50 mM Tris-HCl, 4 mM MnCl2, 1 μM phosphoramidon, 0.1% BSA binding buffer at pH 7.4 to a final assay concentration of 5 μg protein/well. For inhibition experiments, membranes were incubated with [^3H]SR142801 at a concentration equal to KD value of radioligand and 10 concentrations of the inhibitory compound (0.0003-10 μM) (in a total reaction volume of 500 μl) for 75 min at room temperature (RT). At the end of the incubation, membranes were filtered onto unitfilter (96-well white microplate with bonded GF/C filter preincubated 1 h in 0.3% PEI+0.3% BSA, Packard BioScience, Meriden, Conn.) with a Filtermate 196 harvester (Packard BioScience) and washed 4 times with ice-cold 50 mM Tris-HCl, pH 7.4 buffer. Nonspecific binding was measured in the presence of 10 μM SB222200 for both radioligands. The radioactivity on the filter was counted (5 min) on a Packard Top-count microplate scintillation counter with quenching correction after addition of 45 μl of microscint 40 (Can berra Packard S. A., Zurich, Switzerland) and shaking for 1 h. Inhibition curves were fitted according to the Hill equation: y=100/(1+(x/IC50)^nH), where nH=slope factor using Excel-fit 4 software (Microsoft). IC50 values were derived from the inhibition curve and the affinity constant (Ki) values were calculated using the Cheng-Prussoff equation Ki=IC50/(1+[L]/KD) where [L] is the concentration of radioligand and KD is its dissociation constant at the receptor, derived from the saturation isotherm. All experiments were performed in duplicate and the mean±standard error (SEM) of the individual Ki values was calculated.

human NK3 receptor, sequence (P29371 whole entry): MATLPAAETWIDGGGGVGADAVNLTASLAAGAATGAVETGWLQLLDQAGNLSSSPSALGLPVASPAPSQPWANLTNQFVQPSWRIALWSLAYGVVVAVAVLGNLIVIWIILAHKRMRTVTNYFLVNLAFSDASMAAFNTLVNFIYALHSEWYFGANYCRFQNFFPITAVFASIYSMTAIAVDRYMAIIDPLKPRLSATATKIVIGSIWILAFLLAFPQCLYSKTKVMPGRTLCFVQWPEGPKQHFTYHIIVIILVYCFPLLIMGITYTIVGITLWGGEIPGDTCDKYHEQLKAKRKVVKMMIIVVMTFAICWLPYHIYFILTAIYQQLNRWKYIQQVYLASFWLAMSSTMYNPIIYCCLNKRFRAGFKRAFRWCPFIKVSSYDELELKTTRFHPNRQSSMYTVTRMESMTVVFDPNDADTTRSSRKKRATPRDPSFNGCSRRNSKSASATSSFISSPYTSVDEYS

Row | Structure (SMILES) | Ki
1 | CC(C)C(=O)N1CCC(C(=O)N2C[C@H](c3ccc(Cl)cc3)[C@@](C)(COc3ccc(Cl)cn3)C2)CC1 (racemic) [Example 13, 1-{4-[(3RS,4RS)-4-(4-Chloro-phenyl)-3-(5-chloro-pyridin-2-yloxymethyl)-3-methyl-pyrrolidine-1-carbonyl]-piperidin-1-yl}-2-methyl-propan-1-one] | 0.0087 µM
2 | CC1(C(=O)N2CCC(C(=O)N3C[C@H](c4ccc(Cl)cc4)[C@@](C)(COc4ccc(Cl)cn4)C3)CC2)CC1 (racemic) [Example 3, [(3RS,4RS)-4-(4-Chloro-phenyl)-3-(5-chloro-pyridin-2-yloxymethyl)-3-methyl-pyrrolidin-1-yl]-[1-(1-methyl-cyclopropanecarbonyl)-piperidin-4-yl]-methanone] | 0.0072 µM
3 | COc1ccc(C(=O)N2C[C@H](c3ccc(Cl)cc3)[C@@](C)(COc3ccc(Cl)cn3)C2)cn1 (racemic) [Example 9, [(3RS,4RS)-4-(4-Chloro-phenyl)-3-(5-chloro-pyridin-2-yloxymethyl)-3-methyl-pyrrolidin-1-yl]-(6-methoxy-pyridin-3-yl)-methanone] | 0.0563 µM
4 | C[C@]1(COc2ccc(Cl)cn2)CN(C(=O)c2ccc(C#N)cc2)C[C@@H]1c1ccc(Cl)cc1 (racemic) [Example 8, 4-[(3RS,4RS)-4-(4-Chloro-phenyl)-3-(5-chloro-pyridin-2-yloxymethyl)-3-methyl-pyrrolidine-1-carbonyl]-benzonitrile] | 0.0451 µM
5 | C[C@]1(COc2ccc(Cl)cn2)CN(C(=O)c2ccc(-n3cccn3)nc2)C[C@@H]1c1ccc(Cl)cc1 (racemic) [Example 6, [(3RS,4RS)-4-(4-Chloro-phenyl)-3-(5-chloro-pyridin-2-yloxymethyl)-3-methyl-pyrrolidin-1-yl]-(6-pyrazol-1-yl-pyridin-3-yl)-methanone] | 0.0352 µM
6 | C[C@]1(COc2ccc(Cl)cn2)CN(C(=O)c2ccnc(Cl)c2)C[C@@H]1c1ccc(Cl)cc1 (racemic) [Example 5] | 0.0618 µM
7 | C[C@]1(COc2ccc(Cl)cn2)CN(C(=O)N2CCN(S(C)(=O)=O)CC2)C[C@@H]1c1ccc(Cl)cc1 (racemic) [Example 2, [(3RS,4RS)-4-(4-Chloro-phenyl)-3-(5-chloro-pyridin-2-yloxymethyl)-3-methyl-pyrrolidin-1-yl]-(4-methanesulfonyl-piperazin-1-yl)-methanone] | 0.0478 µM

Now from value to compound:

Row | Ki | Structure (SMILES)
8 | 0.0106 µM | CC(=O)N1CCC(C(=O)N2C[C@H](c3ccc(Cl)cc3)[C@@](C)(COc3ccc(Cl)cn3)C2)CC1 (racemic) [Example 11, 1-{4-[(3RS,4RS)-4-(4-Chloro-phenyl)-3-(5-chloro-pyridin-2-yloxymethyl)-3-methyl-pyrrolidine-1-carbonyl]-piperidin-1-yl}-ethanone]
9 | 0.0225 µM | CC(C)CN1CCC(C(=O)N2C[C@H](c3ccc(Cl)cc3)[C@@](C)(COc3ccc(Cl)cn3)C2)CC1 (racemic) [Example 12, [(3RS,4RS)-4-(4-Chloro-phenyl)-3-(5-chloro-pyridin-2-yloxymethyl)-3-methyl-pyrrolidin-1-yl]-(1-isobutyl-piperidin-4-yl)-methanone]

same assay, conditions: membranes from HEK293 cells transiently expressing recombinant human NK3 receptor; [3H]SR142801 radioligand; second half of table, head prints nM; read-out: Ki (nM) hNK3

Row | Structure (SMILES) | Ki
10 | Cc1nc(-c2ccc(C(=O)N3C[C@H](c4ccc(Cl)cc4)[C@@](C)(COc4ccc(Cl)cn4)C3)cc2)no1 (racemic) [Example 24, [(3RS,4RS)-4-(4-Chloro-phenyl)-3-(5-chloro-pyridin-2-yloxymethyl)-3-methyl-pyrrolidin-1-yl]-[4-(5-methyl-[1,2,4]oxadiazol-3-yl)-phenyl]-methanone] | 0.0261 µM
11 | C[C@]1(COc2ccc(Cl)cn2)CN(C(=O)c2ccc(N3CCCCC3=O)cc2)C[C@@H]1c1ccc(Cl)cc1 (racemic) [Example 27, 1-{4-[(3RS,4RS)-4-(4-Chloro-phenyl)-3-(5-chloro-pyridin-2-yloxymethyl)-3-methyl-pyrrolidine-1-carbonyl]-phenyl}-piperidin-2-one] | 0.0931 µM
12 | C[C@]1(COc2ccc(Cl)cn2)CN(C(=O)c2ccc(C#N)nc2)C[C@@H]1c1ccc(Cl)cc1 (racemic) [Example 21, 5-[(3RS,4RS)-4-(4-Chloro-phenyl)-3-(5-chloro-pyridin-2-yloxymethyl)-3-methyl-pyrrolidine-1-carbonyl]-pyridine-2-carbonitrile] | 0.039 µM

Further lines, results first:

Row | Ki | Structure (SMILES)
13 | 0.0044 µM | C[C@]1(COc2ccc(Cl)cn2)CN(C(=O)C2CCN(c3ccc(C#N)nc3)CC2)C[C@@H]1c1ccc(Cl)cc1 (racemic) [Example 25, 4-[(3RS,4RS)-4-(4-Chloro-phenyl)-3-(5-chloro-pyridin-2-yloxymethyl)-3-methyl-pyrrolidine-1-carbonyl]-3,4,5,6-tetrahydro-2H-[1,3′]bipyridinyl-6′-carbonitrile]
14 | 0.0037 µM | C[C@]1(COc2ccc(Cl)cn2)CN(C(=O)C2CCN(c3ccc(C#N)cn3)CC2)C[C@@H]1c1ccc(Cl)cc1 (racemic) [Example 16, 4-[(3RS,4RS)-4-(4-Chloro-phenyl)-3-(5-chloro-pyridin-2-yloxymethyl)-3-methyl-pyrrolidine-1-carbonyl]-3,4,5,6-tetrahydro-2H-[1,2′]bipyridinyl-5′-carbonitrile]
15 | 0.0059 µM | CC(=O)c1ccc(N2CCC(C(=O)N3C[C@H](c4ccc(Cl)cc4)[C@@](C)(COc4ccc(Cl)cn4)C3)CC2)nc1 (racemic) [Example 18, 1-{4-[(3RS,4RS)-4-(4-Chloro-phenyl)-3-(5-chloro-pyridin-2-yloxymethyl)-3-methyl-pyrrolidine-1-carbonyl]-3,4,5,6-tetrahydro-2H-[1,2′]bipyridinyl-5′-yl}-ethanone]
16 | 0.0114 µM | COc1ccc(N2CCC(C(=O)N3C[C@H](c4ccc(Cl)cc4)[C@@](C)(COc4ccc(Cl)cn4)C3)CC2)nn1 [Example 26, [(3R,4R)-4-(4-Chloro-phenyl)-3-(5-chloro-pyridin-2-yloxymethyl)-3-methyl-pyrrolidin-1-yl]-[1-(6-methoxy-pyridazin-3-yl)-piperidin-4-yl]-methanone]
17 | 0.015 µM | Cc1ccc(N2CCC(C(=O)N3C[C@H](c4ccc(Cl)cc4)[C@@](C)(COc4ccc(Cl)cn4)C3)CC2)nc1 (racemic) [Example 15, [(3RS,4RS)-4-(4-Chloro-phenyl)-3-(5-chloro-pyridin-2-yloxymethyl)-3-methyl-pyrrolidin-1-yl]-(5′-methyl-3,4,5,6-tetrahydro-2H-[1,2′]bipyridinyl-4-yl)-methanone]
18 | 0.0112 µM | C[C@]1(COc2ccc(Cl)cn2)CN(C(=O)C2CCN(c3ccc(F)cn3)CC2)C[C@@H]1c1ccc(Cl)cc1 (racemic) [Example 19, [(3RS,4RS)-4-(4-Chloro-phenyl)-3-(5-chloro-pyridin-2-yloxymethyl)-3-methyl-pyrrolidin-1-yl]-(5′-fluoro-3,4,5,6-tetrahydro-2H-[1,2′]bipyridinyl-4-yl)-methanone]
19 | 0.0193 µM | C[C@]1(COc2ccc(Cl)cn2)CN(C(=O)C2CCN(c3ccc(Cl)cn3)CC2)C[C@@H]1c1ccc(Cl)cc1 (racemic) [Example 20, [(3RS,4RS)-4-(4-Chloro-phenyl)-3-(5-chloro-pyridin-2-yloxymethyl)-3-methyl-pyrrolidin-1-yl]-(5′-chloro-3,4,5,6-tetrahydro-2H-[1,2′]bipyridinyl-4-yl)-methanone]
20 | 0.0023 µM | C[C@]1(COc2ccc(Cl)cn2)CN(C(=O)C2CCN(c3ccc(C#N)cc3)CC2)C[C@@H]1c1ccc(Cl)cc1 (racemic) [Example 17, 4-{4-[(3RS,4RS)-4-(4-Chloro-phenyl)-3-(5-chloro-pyridin-2-yloxymethyl)-3-methyl-pyrrolidine-1-carbonyl]-piperidin-1-yl}-benzonitrile]
